Test results from paper PMC11085442 (Molecules, 2024).
Values after ≈ are worked out from the molar mass of the structure shown.

How the values were obtained:
PC 12 cell line = assay: Cytotoxicity assay (CCK-8) on PC 12; format: cell-based, rat; conditions: 20 μM
Experimental: RAW264.7 cells were cultured in 96-well plates at a density of 3 × 10^4 cells/mL in Dulbecco’s modified Eagle’s medium (DMEM, Gibco, Baltimore, MD, USA) with 10% fetal calf serum (Gibco, Baltimore, MD, USA), 100 U/mL penicillin, and 100 μg/mL streptomycin. Plates were incubated in an atmosphere containing 5% CO2 at […]. PC 12 cells were cultured in 96-well plates at a density of 8000 cells/mL in Dulbecco’s modified Eagle’s medium (DMEM, Gibco, Baltimore, MD, USA) with 10% fetal calf serum (Gibco, Baltimore, MD, USA), 100 U/mL penicillin, and 100 μg/mL streptomycin. Plates were incubated in an atmosphere containing 5% CO2 at 37 °C. Cells were treated with different concentrations of test compounds for 48 h. Then, 10 μL CCK-8 solution were added to all the wells. After 4 h incubation, the absorbance at 450 nm of each well was measured in a multiscan photometer.

[1] = test system: LPS-stimulated RAW264.7 cell lines; assay: LPS-induced NO production (Griess) in RAW264.7; format: cell-based, murine; conditions: for The production of NO: LPS-stimulated RAW264.7, LPS group 49.86 ± 0.62, control 1.20 ± 0.38; for inhibitory activity against NO production compared with curcumin: 10 μM
Experimental: RAW 264.7 cells were plated in 96-well plates at a density of 1 × 10^4 cells/well and incubated overnight at 37 °C under 5% CO2. […] Dexamethasone (Solarbio, D8040, Beijing, China) was used as the positive control. Then, 24 h later, NO production was determined by measuring the nitrite content using Griess reagents. Fifty microliters of culture supernatants were transferred to 96-well plates and mixed with 50 μL Griess reagent A. After incubation at room temperature for 5 min, the samples were mixed with an equal volume Griess reagent B for another 5 min. The absorbance of each mixture at 540 nm was measured using a microplate reader.

[2] = test system: H2O2-stimulated PC 12 cell lines; assay: Protection against H2O2-induced oxidative damage (CCK-8); format: cell-based, rat; conditions: for Cell viability / viability at 5 µM / viability at 10 µM / viability at 20 µM: H2O2-induced oxidative damage, PC 12, H2O2 group 49.69 ± 1.37, control 100; for Cell viability: in % (unit assumed); for cell survival rate (anti-oxidant): at 20 μM; for cell survival rate (anti-oxidant) / anti-oxidant capacity compared with curcumin: H2O2-stimulated PC 12; for anti-oxidant capacity compared with curcumin: 10 μM; for viability at 5 µM / viability at 10 µM / viability at 20 µM: Rattus norvegicus; for viability at 5 µM: PC-12, Dose 5 μM; for viability at 10 µM: PC-12, Dose 10 μM; for viability at 20 µM: PC-12, Dose 20 μM
Experimental: PC 12 cells were seeded in 96-well plates at a density of 8000 cells/well and incubated overnight. […] After incubating under the same conditions for 24 h, 10 μL CCK-8 solution was added to each well. After 2 h incubation, the absorbance of each well was measured at 450 nm using a microplated reader (Multiskan MK-3, Thermo, Waltham, MA, USA).

PC 12 cell lines = assay: Radiation protection in vitro (CCK-8); format: cell-based, rat; conditions: for radiation protection capacity / radiation protection capability compared with curcumin: 10 μM; for radiation protection capacity: versus radiation group; for viability at 5 µM / viability at 10 µM / viability at 20 µM: Rattus norvegicus; for viability at 5 µM: PC-12, Dose 5 μM; for viability at 5 µM / viability at 10 µM / viability at 20 µM / Cell viability: radiation 8.0 Gy, PC 12, radiation group 50.22 ± 1.08; for viability at 10 µM: PC-12, Dose 10 μM; for viability at 20 µM: PC-12, Dose 20 μM; for Cell viability: in % (unit assumed)
Experimental: The rat adrenal pheochromocytoma cells (PC 12) were used for in vitro studies. A Cell Counting Kit-8 (CCK-8, Applygen Technologies Co., Ltd., Beijing, China) assay was used to determine cell viability. […] Cells were irradiated with dose of 8.0 Gy at a dose rate of 0.8 Gy/min. Then, 10 μL CCK-8 solution was added to all the wells. After 4 h incubation, the absorbance at 450 nm of each well was measured in a multiscan photometer.

[3] = Aqueous solubility determination by UV spectrophotometer; format: physicochemical; conditions: water, thermodynamic from solid, saturated solution concentration
Experimental: A UV spectrophotometer was used to test the aqueous solubility of target compounds. Each compound to be tested was prepared into solutions with concentrations of 0.2 M, 0.1 M, 0.05 M, 0.025 M, 0.0125 M, 0.00625 M, and 0.003125 M. The optical density (OD) values of the prepared solutions were measured using an ultraviolet spectrophotometer, and concentration–OD-value standard curves were drawn for each compound to be tested. The saturated solutions of the target compounds were diluted by 5000 times and detected using an ultraviolet spectrophotometer to measure the OD values, respectively. The measured OD values were substituted into the corresponding concentration-OD value standard curve to calculate the diluted concentrations, which were multiplied by 5000 to obtain the saturated solution concentrations of the target compounds.

[4] = cited from earlier work

| Compound | effect on PC 12 cell proliferation (PC 12 cell line) | The production of NO ([1]; Dose 5 μM) | The production of NO ([1]; Dose 10 μM) | The production of NO ([1]; Dose 15 μM) | Cell viability ([2]; Dose 5 μM) | Cell viability ([2]; Dose 10 μM) | Cell viability ([2]; Dose 20 μM) | cell survival rate (anti-oxidant) [2] [%] | radiation protection capacity (PC 12 cell lines) | viability at 5 µM (PC 12 cell lines) [%] | viability at 10 µM (PC 12 cell lines) [%] | viability at 20 µM (PC 12 cell lines) [%] | anti-oxidant capacity compared with curcumin [2] | viability at 5 µM [2] [%] | viability at 10 µM [2] [%] | viability at 20 µM [2] [%] | Cell viability (PC 12 cell lines; Dose 5 μM) | Cell viability (PC 12 cell lines; Dose 10 μM) | inhibitory activity against NO production compared with curcumin [1] | radiation protection capability compared with curcumin (PC 12 cell lines; irradiated PC 12) | other results |
| --- | --- | --- | --- | --- | --- | --- | --- | --- | --- | --- | --- | --- | --- | --- | --- | --- | --- | --- | --- | --- | --- |
| COc1ccc(/C=C/C(=O)CC(=O)/C=C/c2cc(CN(C)C)c(O)c(OC)c2)cc1O [Compound 11] | significant promoting effect | 35.85 ± 0.30 | 19.36 ± 1.66 | 7.59 ± 0.35 | 63.24 ± 1.07 | 72.52 ± 0.32 | 96.33 ± 1.04 | 96 | a certain degree of radiation protection capacity | 65.09 ± 0.4 | 84.5 ± 3.4 | 94.2 ± 4.35 | – | – | – | – | – | – | – | – | cell survival rate (radiation protection) (PC 12 cell lines; at 20 μM, irradiated PC 12): 94% |
| COc1ccc(/C=C/C(=O)CC(=O)/C=C/c2cc(CN(C)C)c(O)c(OC)c2)cc1OC [Compound 5] | significant promoting effect | 34.62 ± 0.76 | 16.89 ± 1.33 | 9.97 ± 1.11 | – | – | – | – | a certain degree of radiation protection capacity | – | – | – | better anti-oxidant capacity | 71.02 ± 0.56 | 84.4 ± 1.86 | 103 ± 3.36 | 58.70 ± 4.93 | 64.93 ± 4.67 | – | – | Cell viability (PC 12 cell lines; Dose 20 μM): 104.23 ± 2.86 |
| COc1cc(/C=C/C(=O)CC(=O)/C=C/c2ccc(OC)c(OC)c2OC)cc(CN(C)C)c1O [Compound 6a] | significant promoting effect | 27.02 ± 2.91 | 14.29 ± 1.71 | 5.23 ± 0.72 | 60.05 ± 5.39 | 76.41 ± 2.29 | 100.96 ± 1.07 | – | a certain degree of radiation protection capacity | 65.6 ± 2.17 | 71.7 ± 2.56 | 84.9 ± 6.57 | – | – | – | – | – | – | better inhibitory activity | better radiation protection capability | solubility [3]: 112 mg/mL (≈ 239 mM) |
| CCOc1cc(/C=C/C(=O)CC(=O)/C=C/c2cc(CN(C)C)c(O)c(OC)c2)ccc1O [Compound 1] | significant promoting effect | 44.55 ± 0.55 | 34.25 ± 0.96 | 12.30 ± 0.90 | – | – | – | – | a certain degree of radiation protection capacity | – | – | 89.7 ± 8.17 | – | 63.9 ± 2.86 | 74.7 ± 4.82 | 86.4 ± 3.89 | 47.61 ± 1.20 | 57.30 ± 1.29 | – | – | – |
| COc1cc(/C=C/C(=O)CC(=O)/C=C/c2ccc(O)c(OC)c2)ccc1O [Curcumin, curcumin, reference compound] | – | 37.00 ± 1.12 | 21.55 ± 1.29 | 5.96 ± 0.03 | – | – | – | – | – | 55.1 ± 1.37 | 59.39 ± 0.57 | 75.47 ± 0.68 | – | 59.6 ± 2.21 | 71.8 ± 1.52 | 86.4 ± 1.28 | – | – | – | – | aqueous solubility [4]: < 0.1 mg/mL |
| COc1ccc(/C=C/C(=O)CC(=O)/C=C/c2cc(CN(C)C)c(O)c(OC)c2)cc1OC [Compound 5a] | significant promoting effect | 33.90 ± 1.94 | 15.60 ± 2.78 | 9.88 ± 0.53 | 75.15 ± 5.90 | 84.53 ± 2.36 | 106.17 ± 3.34 | 106 | a certain degree of radiation protection capacity | 58.2 ± 1.86 | 68.7 ± 5.9 | 105 ± 5.01 | better anti-oxidant capacity | – | – | – | – | – | better inhibitory activity | better radiation protection capability | solubility [3]: 118 mg/mL (≈ 268 mM) |
